This passage reports IC50 and viability, T/C results from PubChem BioAssay AID1918949 (Molecular Pharmacology Branch, DTP, NCI, 2023).

The assay relates to K24384-001-R-PDC complex spheroid viability. Briefly: Anticancer human tumor K24384-001-R-PDC patient-derived pancreatic adenocarcinoma cell line growth inhibition. The settings on record: for viability, T/C: stronger effect = lower value. The method, boiled down:
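Multicellular complex spheroids of tumor cells with human endothelial cells (HUVEC) and mesenchymal stem cells; the LSD1 inhibitor iadademstat was combined with standard-of-care or investigational agents. Top concentration at or near clinical Cmax, half-log dilutions; final DMSO ≤0.25%.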

[1] abbreviates: curve of first compound, second compound 0.1 µM.
The mark [2] stands for this setting: curve of first compound, second compound 0.316 µM.
The mark [3] stands for this setting: curve of first compound, second compound 1 µM.
Setting [4] is: curve of first compound, second compound 3.16 µM.
[5] abbreviates: curve of first compound, second compound 10 µM.
Where [6] appears, read: second compound 0.1 µM, first compound 0.00316 µM.
Setting [7] is: second compound 0.1 µM, first compound 0.01 µM.
The mark [8] stands for this setting: second compound 0.1 µM, first compound 0.0316 µM.
The mark [9] stands for this setting: second compound 0.1 µM, first compound 0.1 µM.
The mark [10] stands for this setting: second compound 0.1 µM, first compound 0.316 µM.
[11] abbreviates: second compound 0.1 µM, first compound 1 µM.
[12] abbreviates: second compound 0.316 µM, first compound 0.00316 µM.
Where [13] appears, read: second compound 0.316 µM, first compound 0.01 µM.
Setting [14] is: second compound 0.316 µM, first compound 0.0316 µM.
[15] abbreviates: second compound 0.316 µM, first compound 0.1 µM.
The mark [16] stands for this setting: second compound 0.316 µM, first compound 0.316 µM.
[17] abbreviates: second compound 0.316 µM, first compound 1 µM.
Setting [18] is: second compound 1 µM, first compound 0.00316 µM.
Where [19] appears, read: second compound 1 µM, first compound 0.01 µM.
Where [20] appears, read: second compound 1 µM, first compound 0.0316 µM.
The mark [21] stands for this setting: second compound 1 µM, first compound 0.1 µM.
Where [22] appears, read: second compound 1 µM, first compound 0.316 µM.
The mark [23] stands for this setting: second compound 1 µM, first compound 1 µM.
[24] abbreviates: second compound 3.16 µM, first compound 0.00316 µM.
[25] abbreviates: second compound 3.16 µM, first compound 0.01 µM.
The mark [26] stands for this setting: second compound 3.16 µM, first compound 0.0316 µM.
The mark [27] stands for this setting: second compound 3.16 µM, first compound 0.1 µM.
Setting [28] is: second compound 3.16 µM, first compound 0.316 µM.
Where [29] appears, read: second compound 3.16 µM, first compound 1 µM.
Where [30] appears, read: second compound 10 µM, first compound 0.00316 µM.
The mark [31] stands for this setting: second compound 10 µM, first compound 0.01 µM.
[32] abbreviates: second compound 10 µM, first compound 0.0316 µM.
[33] abbreviates: second compound 10 µM, first compound 0.1 µM.
[34] abbreviates: second compound 10 µM, first compound 0.316 µM.
The mark [35] stands for this setting: second compound 10 µM, first compound 1 µM.

“And” between values parts separate entries of the source, which are not always exact repeats. Equal entries are not always repeated. A value given as a limit tells only on which side of the number the result lay.
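Also: spheroids exposed to agents for seven days before luminescence viability reading.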
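For viability, T/C in this document: 100% = DMSO vehicle control viability.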

Consider `CC1COCCN1c1cc(-c2ccnn2C)c2ccnc(-c3ccn[nH]3)c2n1` (stereo not given) + NC1CCC(NC2CC2c2ccccc2)CC1, for which the IC50 by setting is: under setting [1], 56.6 nM; under setting [2], below 3.16 nM; under setting [3], 7.71 nM; under setting [4], 9.22 nM; under setting [5], 5.07 nM. Moreover, the viability, T/C runs as follows: under setting [6], 54.7%; under setting [7], 56.7%; under setting [8], 49%; under setting [9], 45.1%; under setting [10], 52.2%; under setting [11], 42.4%. Moreover, the viability, T/C is 52.6% under setting [12]; 48.3% under setting [13]; 42.5% under setting [14]; 43.3% under setting [15]; 51.6% under setting [16]; 44.4% under setting [17]. The viability, T/C by setting is: under setting [18], 51%; under setting [19], 56.5%; under setting [20], 41.6%; under setting [21], 40.2%; under setting [22], 47.5%; under setting [23], 44.2%. For the same molecule, the viability, T/C by setting is: under setting [24], 55.4%; under setting [25], 51.7%; under setting [26], 41.8%; under setting [27], 42%; under setting [28], 49.7%; under setting [29], 36.2%. Moreover, the viability, T/C is, setting by setting: under setting [30], 48.4%; under setting [31], 54.9%; under setting [32], 39.2%; under setting [33], 34.7%; under setting [34], 33.2%; under setting [35], 31.6%.

As to `CC1(C)CCC(CN2CCN(c3ccc(C(=O)NS(=O)(=O)c4ccc(NCC5CCOCC5)c([N+](=O)[O-])c4)c(Oc4cnc5[nH]ccc5c4)c3)CC2)=C(c2ccc(Cl)cc2)C1`, the viability, T/C is 95.9% and 81.9% (compound 0.0316 µM); 97.3% and 90.8% (compound 0.1 µM); 96.5% and 92.7% (compound 0.316 µM); 106% and 78.1% (compound 1 µM); 63.5% and 67.6% (compound 3.16 µM); 0.81% and 1.22% (compound 10 µM). Besides, the 50% inhibitory concentration (IC50) (curve of compound) was 4050 nM and 4230 nM.

On to `CCc1c2c(nc3ccc(O)cc13)-c1cc3c(c(=O)n1C2)COC(=O)[C@]3(O)CC`, for which the viability, T/C reads like this: (compound 0.000949 µM) 54.8% and 42%; (compound 0.003 µM) 49.9% and 39.2%; (compound 0.00949 µM) 32.7%; (compound 0.03 µM) 9.62% and 11.7%; (compound 0.0949 µM) 6.2% and 6.67%; (compound 0.3 µM) 5% and 5.21%. In addition, the IC50 (curve of compound) is 3.16 nM and < 0.949 nM.

As to `Nc1ncn(C2CC(O)C(CO)S2)c(=O)n1` (stereo not given), the viability, T/C is 93.1% and 95.2% (compound 0.000949 µM); 96.3% and 88.6% (compound 0.003 µM); 96.3% and 85.4% (compound 0.00949 µM); 83.3% and 89.3% (compound 0.03 µM); 81.3% and 69.1% (compound 0.0949 µM); 55.9% and 56.2% (compound 0.3 µM). Where the note is “curve of compound”, the IC50 was above 300 nM.

As to `O=C(C=Cc1cccc(S(=O)(=O)Nc2ccccc2)c1)NO`, the viability, T/C is 120% and 101% (compound 0.00949 µM); 127% and 112% (compound 0.03 µM); 114% and 105% (compound 0.0949 µM); 38% and 43.9% (compound 0.3 µM); 4.5% and 5.62% (compound 0.949 µM); 0.23% and 0.24% (compound 3 µM). The IC50 (curve of compound) was 250 nM and 268 nM.

For `Nc1ncn(C2CC(O)C(CO)O2)c(=O)n1` (stereo not given), the viability, T/C (compound 0.00316 µM) is 98.6% and 96.8%; the viability, T/C (compound 0.01 µM) was 88.9% and 94.9%; the viability, T/C (compound 0.0316 µM) was 93% and 100%; the viability, T/C (compound 0.1 µM) is 84.2% and 77.6%; the viability, T/C (compound 0.316 µM) is 75.6% and 75.5%; the viability, T/C (compound 1 µM) was 75% and 87.2%. Moreover, under “curve of compound”, the IC50 was above 1000 nM.

With `CC(C)CC(NC(=O)CNC(=O)c1cc(Cl)ccc1Cl)B1OC(=O)CC(CC(=O)O)(C(=O)O)O1` (stereo not given) + NC1CC1c1ccc(-c2cccc(O)c2)cc1, the 50% inhibitory concentration (IC50) came to 8.97 nM under setting [1]; 9.19 nM under setting [2]; 8.54 nM under setting [3]; 8.66 nM under setting [4]; 7.15 nM under setting [5]. Besides, the viability, T/C (second compound 0.1 µM, first compound 0.000316 µM) is 121%; the viability, T/C (second compound 0.1 µM, first compound 0.001 µM) was 123%; the viability, T/C under setting [6] was 97.3%; the viability, T/C under setting [7] is 46.6%; the viability, T/C under setting [8] was 4.82%; the viability, T/C under setting [9] was 0.93%. The viability, T/C reads like this: (second compound 0.316 µM, first compound 0.000316 µM) 114%; (second compound 0.316 µM, first compound 0.001 µM) 113%; under setting [12], 95.4%; under setting [13], 47.8%; under setting [14], 4.68%; under setting [15], 0.79%. Moreover, the viability, T/C was 112% (second compound 1 µM, first compound 0.000316 µM); 129% (second compound 1 µM, first compound 0.001 µM); 117% under setting [18]; 38.8% under setting [19]; 4.54% under setting [20]; 0.98% under setting [21]. Besides, the viability, T/C runs as follows: (second compound 3.16 µM, first compound 0.000316 µM) 117%; (second compound 3.16 µM, first compound 0.001 µM) 109%; under setting [24], 101%; under setting [25], 42.9%; under setting [26], 4.31%; under setting [27], 0.85%. The viability, T/C reads like this: (second compound 10 µM, first compound 0.000316 µM) 111%; (second compound 10 µM, first compound 0.001 µM) 136%; under setting [30], 103%; under setting [31], 28.1%; under setting [32], 2.96%; under setting [33], 0.48%.

In the case of `O=C(c1cc(Cc2n[nH]c(=O)c3ccccc23)ccc1F)N1CCN(C(=O)C2CC2)CC1` + NC1CCC(NC2CC2c2ccccc2)CC1, the half-maximal inhibitory concentration (IC50) under setting [1] is above 10000 nM; the IC50 under setting [2] is above 10000 nM; the IC50 under setting [3] was above 10000 nM; the IC50 under setting [4] was above 10000 nM; the IC50 under setting [5] is above 10000 nM. The viability, T/C under setting [8] is 75.1%; the viability, T/C under setting [9] is 79.7%; the viability, T/C under setting [10] was 81.6%; the viability, T/C under setting [11] is 86.5%; the viability, T/C (second compound 0.1 µM, first compound 3.16 µM) was 69.3%; the viability, T/C (second compound 0.1 µM, first compound 10 µM) was 91.8%. Also, the viability, T/C is, setting by setting: under setting [14], 74.6%; under setting [15], 74.8%; under setting [16], 79.5%; under setting [17], 71.2%; (second compound 0.316 µM, first compound 3.16 µM) 79.4%; (second compound 0.316 µM, first compound 10 µM) 77.8%. Also, the viability, T/C was 78.1% under setting [20]; 75.8% under setting [21]; 75.3% under setting [22]; 72.4% under setting [23]; 75.2% (second compound 1 µM, first compound 3.16 µM); 81% (second compound 1 µM, first compound 10 µM). Moreover, the viability, T/C runs as follows: under setting [26], 81.9%; under setting [27], 81.8%; under setting [28], 77.8%; under setting [29], 75.6%; (second compound 3.16 µM, first compound 3.16 µM) 69.7%; (second compound 3.16 µM, first compound 10 µM) 71.1%. Besides, the viability, T/C was 75.2% under setting [32]; 101% under setting [33]; 68.3% under setting [34]; 73.4% under setting [35]; 65% (second compound 10 µM, first compound 3.16 µM); 68.8% (second compound 10 µM, first compound 10 µM).

Broadly, the IC50 is the point on the concentration scale where inhibition reaches its midpoint. For orientation: viability, T/C means the ratio of treated to control.
